Columns and labels:
[1] = tested on: Human fetal osteoblasts (hFOB, CRL-11372, ATCC); test: Cell adhesion testing; format: cell-based; settings: 4 h culture, seeded at 3500 cells/cm^2
Description: (§1) Human fetal osteoblasts (hFOB, CRL-11372, ATCC) of population numbers 7-11 were cultured in Dulbecco's Modified Eagle's Medium (DMEM, GIBCO) supplemented with 10% fetal bovine serum (FBS, Hyclone) and 1% penicillin/streptomycin (P/S, Hyclone) under standard cell culture conditions (that is, a humidified, 5% CO2/95% air environment at 37° C.). Osteoblasts were seeded onto the petri-dish at a density of 3500 cells/cm^2 and were cultured under standard cell culture conditions for 4 h with peptide concentration discussed. After the prescribed time period, non-adherent cells were removed by sequential phosphate buffered saline (PBS) washings. The remaining cells were fixed using 10% normal buffered formaldehyde (Fisher Scientific) for 10 min and 0.1% Triton X-100 (Sigma-Aldrich) for 5 min. Adherent cells were counted in five random fields per substrate under a Zeiss Axiovert 200M fluorescence microscope. Experiments were run in triplicate and repeated three separate times for each substrate.

[2] = tested on: Human fetal osteoblasts (hFOB, CRL-11372, ATCC); test: Osteoblast proliferation testing (osteoblast density); format: cell-based; settings: after day 3, seeded at 2500 cells/cm^2, FIG. 2
Description: as §1
For osteoblast proliferation studies, similar to the above procedures, osteoblasts were seeded on petri dish at 2500 cells/cm^2 with peptides and cultured for 1, 3 days. After the prescribed time periods, adherent cells were fixed, stained and counted under the fluorescence microscope as described above. All cellular experiments were run in triplicate and repeated at least three times for each substrate.

osteoblasts [3] = test: Cell function tests, overall osteoblast function; format: cell-based, human; settings: summary of total protein, ALP and calcium tests
Description: (§2) Total intracellular protein content of osteoblasts is extremely important since it is the indication of healthy growth and normal cell response. Thus, the amount of protein produced by cells were measured up to 3 weeks of culture after providing complete media. In order to release the intracellular protein, the adhered cells on the substrates were lysed in DI water using a standard four cycle freeze-thaw method. The resulting lysate solution was then used for analysis. The total protein content were determined by a BCA (bicinchoninic acid) assay kit (Pierce) and the absorbance of the solution were measured using a spectrophotometer at a wavelength of 570 nm. The absorbance was then converted to protein content using an albumin standard curve to determine the amount of intracellular protein.
(§3) The resulting lysate solution obtained by a four cycle freeze-thaw method was used to measure the ALP activity using a colorimetric assay (Teco). The absorbance of the solution was measured using a spectrophotometer at a wavelength of 590 nm. The absorbance was converted to concentration using ALP standard and all the data were normalized with total protein content to account for changes in number of cells present on surface.
The calcium content was measured up to 3 weeks in culture using a colorimetric assay (Teco) (see FIG. 4). […]

[4] = tested on: critical sized bone defect; test: Critical sized bone defect model, proximal tibia and distal femur; format: in vivo, Sinclair minipigs; settings: with nPLGA and HRN based scaffolds, 4 and 8 weeks, FIG. 6
Description: A critical sized bone defect model was used in the proximal tibia and distal femur of 12 Sinclair minipigs (Sinclair Research, MO). Time points to be evaluated are 4 weeks and 8 weeks. Four surgical defects (2 tibia and 2 femur) were created on day 0 in all pigs in one limb and on day 28 in all pigs in the opposite limb. Treatments were applied according to predetermined treatment allocations. MRI evaluations of defects were performed at 4 weeks (all limbs) and 8 weeks (initial defects created on day 0). Following euthanasia, defects were evaluated using microCT and histology to measure bone volume fraction within the defects and with mechanical testing to evaluate compressive stiffness and integration with surrounding bone.
Minipigs were given pre-operative analgesic and antimicrobial drugs immediately prior to anesthesia. Pigs were anesthetized in the Clinical Discovery Laboratory (CDL) using standard swine protocols. One stifle region was aseptically prepared and draped routinely for surgery of the proximal tibia and distal femur. Defects were created in epiphyseal/metaphyseal cancellous bone using an 8 mm drill to a depth of 20 mm. The procedure was repeated in the opposite hind limb at 4 weeks. (Confirmation of the critical defect size in minipigs is to be determined.)
Minipigs were housed in the animal holding facility room 1094 and monitored post-operatively. […]

osteoblasts [5] = test: Total intracellular protein content of osteoblasts (BCA assay); format: cell-based, human; settings: after 7 and 14 days, FIG. 5
Description: as §2

osteoblasts [6] = test: Alkaline phosphatase activity of osteoblasts (colorimetric assay); format: cell-based, human; settings: up to 3 weeks, normalized with total protein content, FIG. 3
Description: as §3

osteoblasts [7] = test: Calcium content / calcium deposition by osteoblasts (colorimetric assay); format: cell-based, human; settings: after 21 days, normalized with total protein content
Description: The calcium content was measured up to 3 weeks in culture using a colorimetric assay (Teco) (see FIG. 4). After all the lysate was aspirated, the surfaces were soaked overnight in 6 N HCl solution to dissolve the deposited calcium. The calcium solution was then reacted with assay reagents and the absorbance of the solution was measured photometrically at 570 nm. The absorbance was then converted to concentration using calcium standards and all the data were normalized with total protein content to account for changes in the number of cells present on surface.

| Substance | osteoblast adhesion to substrates [1] | osteoblast density / attachment on peptide coated surfaces [2] | osteoblast function (overall) (osteoblasts [3]) | new bone growth (histology) [4] | total proteins synthesized by osteoblasts (osteoblasts [5]) | alkaline phosphatase activity (osteoblasts [6]) | calcium deposition (osteoblasts [7]) |
| --- | --- | --- | --- | --- | --- | --- | --- |
| KRSR (Ac-KRSR-NH2) [reference compound] | proved to be crucial for maximal osteoblast adhesion to substrates | increased osteoblast attachment compared to other peptides studied | showed increased osteoblast function | showed new bone growth | – | – | – |
| KRSRSNVILKKYRN (Ac-KRSRSNVILKKYRN-NH2) | – | increased osteoblast attachment compared to other peptides studied | showed increased osteoblast function | showed new bone growth | showed the highest value compared to other peptides and the control | superiority | showed highest value compared to other materials studied |
| SNVILKKYRN | – | increased osteoblast attachment compared to other peptides studied | – | – | – | – | – |
